Values quoted from earlier work in patent publication US20060165806A1, “Nanoparticulate candesartan formulations” (Elan Pharma International Limited, priority 2005, published 2006).

Tests used:
AT1 receptor = molecular target: T1, AT1 receptor (Homo sapiens, UniProt P30556); conditions: AT1 versus AT2 receptor
T1 sequence (P30556 1-359): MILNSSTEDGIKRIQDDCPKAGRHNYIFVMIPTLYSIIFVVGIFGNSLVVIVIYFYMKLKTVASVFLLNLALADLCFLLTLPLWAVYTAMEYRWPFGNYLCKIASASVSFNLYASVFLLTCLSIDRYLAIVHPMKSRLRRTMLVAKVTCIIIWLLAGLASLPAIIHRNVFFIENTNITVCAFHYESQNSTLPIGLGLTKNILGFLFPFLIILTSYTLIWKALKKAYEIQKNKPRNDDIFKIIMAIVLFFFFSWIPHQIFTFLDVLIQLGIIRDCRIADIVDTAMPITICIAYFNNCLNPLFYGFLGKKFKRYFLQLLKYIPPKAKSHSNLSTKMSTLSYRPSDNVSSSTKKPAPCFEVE

ACE (kininase II) = ACE (kininase II) (Homo sapiens, UniProt P12821)
[1] = tested on: other hormone receptors or ion channels known to be important in cardiovascular regulation; conditions: receptors and channels important in cardiovascular regulation

Chain of ACE (kininase II) (P12821 30-1306, species assumed): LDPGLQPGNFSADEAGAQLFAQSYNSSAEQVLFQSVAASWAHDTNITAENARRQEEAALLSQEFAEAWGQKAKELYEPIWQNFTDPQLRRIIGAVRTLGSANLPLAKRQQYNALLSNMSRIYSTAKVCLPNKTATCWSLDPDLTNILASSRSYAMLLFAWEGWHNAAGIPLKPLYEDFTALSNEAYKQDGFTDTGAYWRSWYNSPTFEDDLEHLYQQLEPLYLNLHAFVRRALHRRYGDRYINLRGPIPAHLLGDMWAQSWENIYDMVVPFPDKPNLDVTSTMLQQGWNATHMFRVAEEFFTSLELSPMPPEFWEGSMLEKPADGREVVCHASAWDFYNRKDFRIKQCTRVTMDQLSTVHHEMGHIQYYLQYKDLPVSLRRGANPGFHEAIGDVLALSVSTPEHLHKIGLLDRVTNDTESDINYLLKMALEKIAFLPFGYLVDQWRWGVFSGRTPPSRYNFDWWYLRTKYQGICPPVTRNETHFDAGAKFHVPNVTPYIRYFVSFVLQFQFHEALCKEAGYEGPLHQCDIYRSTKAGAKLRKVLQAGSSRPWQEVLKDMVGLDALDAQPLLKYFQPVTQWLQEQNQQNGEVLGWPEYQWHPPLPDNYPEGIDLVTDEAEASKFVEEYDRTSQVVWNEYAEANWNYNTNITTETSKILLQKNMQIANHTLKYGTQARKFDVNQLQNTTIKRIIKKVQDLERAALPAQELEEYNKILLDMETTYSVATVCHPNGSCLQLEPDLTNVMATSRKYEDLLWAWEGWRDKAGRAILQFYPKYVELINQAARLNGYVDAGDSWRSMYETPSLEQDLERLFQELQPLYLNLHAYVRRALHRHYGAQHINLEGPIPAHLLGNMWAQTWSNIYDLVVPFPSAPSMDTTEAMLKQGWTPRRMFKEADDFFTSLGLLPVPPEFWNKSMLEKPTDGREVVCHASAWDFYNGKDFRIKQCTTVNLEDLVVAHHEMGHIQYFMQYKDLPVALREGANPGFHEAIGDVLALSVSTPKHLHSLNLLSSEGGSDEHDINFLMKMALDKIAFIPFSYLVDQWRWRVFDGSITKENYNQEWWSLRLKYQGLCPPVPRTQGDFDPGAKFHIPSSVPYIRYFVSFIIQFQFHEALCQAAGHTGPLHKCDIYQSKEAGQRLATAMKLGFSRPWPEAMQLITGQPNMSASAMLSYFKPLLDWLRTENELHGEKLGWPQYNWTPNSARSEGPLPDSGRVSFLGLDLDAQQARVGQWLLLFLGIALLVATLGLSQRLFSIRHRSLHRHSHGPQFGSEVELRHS

| Structure (SMILES) | greater affinity for the AT1 receptor than for the AT2 receptor (AT1 receptor) | inhibition of ACE (kininase II) (ACE (kininase II)) | binding to or blocking of other hormone receptors or ion channels [1] | solubility in water |
| --- | --- | --- | --- | --- |
| CCOc1nc2cccc(C(=O)O)c2n1Cc1ccc(-c2ccccc2-c2nnn[nH]2)cc1 [Candesartan] | > 10,000 fold | does not inhibit | does not bind to or block | – |
| CCOc1nc2cccc(C(=O)OC(C)OC(=O)OC3CCCCC3)c2n1Cc1ccc(-c2ccccc2-c2nnn[nH]2)cc1 (racemic) [Candesartan cilexitil, (“)-1-Hydroxyethyl 2-ethoxy-1-[p-(o-1H-tetrazol-5-ylphenyl)benzyl]-7-benzimidazolecarboxylate, cyclohexyl carbonate(ester)] | – | – | – | practically insoluble |
